Results as given in patent US10768185B2, “Tenofovir detection assay” (TRUSTEES OF BOSTON UNIVERSITY, priority 2017, dated 2020).
Structures can show the parent of a compound that is named as a salt.

Experiments:
[1] = test system: anti-TFV antibody conjugated to gold nanoparticles; assay: Lateral flow assay specificity test; type: binding, rabbit; conditions: 100 μg/mL in urine
Description: (§1) Hi-Flow Plus HF180 nitrocellulose sheets were laser cut into lateral flow strips and chromatography paper was adhered to the end of the strips as a waste reservoir using autoclave tape. Samples of TFV were prepared at varying concentrations between 10 ng/mL and 100 μg/mL in urine alongside a no TFV control sample. For each sample, 1 μL of conjugated gold nanoparticles was added to 244, of PBS and 804, of sample was added. The mixture was allowed to incubate at room temperature on a rotator for at least 30 minutes. 0.3 μL of anti-rabbit antibody was spotted on the strips as a control spot. 0.3 μL of 2.5 μg/mL BSA-TFV was spotted as the test spot on the strips upstream of the control spot. The spots were allowed to dry and another 0.3 μL of BSA-TFV was spotted on top of the test spot. After incubation, concentrated TBS-T was added to each sample such that the final Tween 20 concentration was 0.05%. One end of each of the lateral flow strips was dipped vertically into the sample tubes such that the solution ran up the nitrocellulose strip and into the waste reservoir via capillary action. The strips were incubated in the solution for 25-30 minutes before being photographed with a Nikon DS-Ri2 camera and analyzed via ImageJ.
The protocol is the same as the competitive lateral flow assay. Solutions of TFV, AZT, Abcavir, AMP, and adenine were made at concentrations of 100 μg/mL alongside a urine only control sample.

[2] = cited from earlier work
[3] = cited from earlier work; remark: listed apart in the source
[4] = test system: anti-TFV polyclonal antibody; assay: Immunoprecipitation of TFV by anti-TFV antibody, LC-MS readout; type: binding, rabbit; conditions: mixture of 50 μg/mL TFV and 1 mg/mL AMP (AMP 20× higher), anti-TFV serum, Protein G beads
Description: LC-MS measurements were taken on an Agilent 1100 series LC/MSD with a Cortecs C18 column (90 Å, 2.7 μm, 4.6 mm×150 mm) from Waters (Milford, Mass.). Samples were dissolved in a solution of 9754, 0.6% trifluoroacetic acid in water and 254, methanol. 204, of sample was injected into a gradient mobile phase outlined in Table 1 at a flowrate of 0.6 mL/min into the column equilibrated at 45° C. and passed through the mass spectrometer set for positive polarity electrospray ionization (ESI+) at a range of 100-1500 m/z.
Two samples were prepared containing a mixture of 1004, of 50 μg/mL TFV and 100 μL of 1 mg/mL AMP. To one tube 375 μL of anti-TFV serum (+IP) was added and to the other 375 μL of PBS (−IP). The samples were incubated while rotating at 4° C. overnight. 3004, of Protein G bead suspension was added to the samples and further incubated at 4° C. for 1 hour. The samples were spun down for 1 minute at 3000 rpm and decanted. The supernatant from the (−IP) sample (−IPsup) was set aside. The beads were then washed and decanted four times with yeast lysis buffer (50 mM HEPES pH 7.6, 1 mM EDTA, 1% Triton X-100, 0.1% sodium deoxycholate, 140 mM NaCl), with the third wash being with a high salt yeast lysis buffer (500 mM NaCl). The beads were then heat eluted for 5 minutes at 95° C. into 100 μL of TE buffer. […]

[5] = test system: anti-TFV antibody conjugated to gold nanoparticles; assay: Competitive gold nanoparticle lateral flow assay, sensitivity test; type: binding, rabbit
Description: as §1
There was a statistically significant difference between groups as determined by one-way ANOVA (F(5,24)=15.0, p=1.02×10^−6).

[6] = test system: anti-TFV polyclonal antibody; assay: Competitive dot blot assay; type: binding, rabbit; conditions: spiked urine, HRP-coupled secondary antibody
Description: Nitrocellulose strips were cut to dimensions of approximately 7 mm by 25 mm. BSA-TFV solution in PBS was diluted down to either 1 μg/mL or 100 ng/mL representing about a 1000-fold or 10,000-fold dilution factor. The strips were then spotted 3 times with luL of diluted BSA-TFV and allowed to dry. The strips were blocked with 5% milk in tris-buffered saline with Tween 20 (TBS-T) for 30 minutes and washed three times with TBS-T. Samples of TFV were prepared at varying concentrations between 1 ng/mL and 1 μg/mL in either TBS-T or human urine alongside a no TFV control sample. Anti-TFV polyclonal antibody from raw serum (e.g., unpurified) was added to the TFV samples at a dilution of 1:50,000 and incubated at room temperature while rotating for at least 1 hour. The strips were incubated in the spiked urine or TBS-T solutions of TFV and anti-TFV polyclonal antibody at room temperature while rotating for 1 hour and washed three times with TBS-T followed by a high-salt (500 mM NaCl) TBS-T wash and a low-salt (50 mM NaCl) TBS-T wash. The strips were then incubated in a 1:8000 dilution in TBS-T of anti-Rabbit antibody conjugated to HRP at room temperature while rotating for 1 hour and washed three times with TBS-T. The HRP was then visualized by pico chemiluminescent substrate and chemiluminescent photographs were taken by a VersaDoc Imaging Model 4000 system from BioRad.

## Cc1cn([C@H]2C[C@H](N=[N+]=[N-])[C@@H](CO)O2)c(=O)[nH]c1=O [AZT]
[1]
  staining of test area (no staining = positive for TFV): staining in both the test area and control area

## NNC(=O)c1ccncc1 [INH, isoniazid]
[2]; typical dose 250 mg/day for a 50 kg patient
  urinary concentrations of INA: ~100 µg/mL
[2]; within 24 hr
  oral dose recovered in the urine as INA: 30-40%

## CC(C)OC(=O)[C@H](C)N[P@](=O)(CO[C@H](C)Cn1cnc2c(N)ncnc21)Oc1ccccc1 [TAF, tenofovir alafenamide]
[3]; TAF 25 mg per day, compared with TDF
  decrease in TFV plasma concentrations: ~10 ×

## Nc1ncnc2nc[nH]c12 [Adenine, adenine]
[1]
  staining of test area (no staining = positive for TFV): staining in both the test area and control area

## CC(C)OC(=O)OCOP(=O)(CO[C@H](C)Cn1cnc2c(N)ncnc21)OCOC(=O)OC(C)C [TDF, tenofovir disoproxil fumarate]
[3]; patient taking 300 mg TDF daily
  urine concentration of TFV: around 23 μg/mL

## Nc1ncnc2c1ncn2[C@@H]1O[C@H](COP(=O)(O)O)[C@@H](O)[C@H]1O [AMP, adenosine monophosphate]
[1]
  staining of test area (no staining = positive for TFV): staining in both the test area and control area
[4]
  presence in immunoprecipitation product by LC-MS: absence

## C[C@H](Cn1cnc2c(N)ncnc21)OCP(=O)(O)O [TFV, Tenofovir]
[5]; 1 μg/mL, 10 μg/mL and 100 μg/mL TFV in urine, N=5
  test spot intensity versus no-TFV control (ANOVA, Tukey post hoc): statistically significant differences
[5]; spiked urine, preliminary
  lower limit of detection / sensitivity: 1 µg/mL
[1]
  staining of test area (no staining = positive for TFV): no staining
[4]
  presence in immunoprecipitation product by LC-MS: presence
[3]; 300 mg ingested only once, after 24-72 hours
  concentration of TFV in urine: 1000 to 10000 ng/mL
[3]; patients on TFV regimens
  urinary concentration of TFV relative to plasma concentration: over 100 ×
[6]
  lower limit of detection: 35 nM

## Nc1nc(NC2CC2)c2ncn([C@H]3C=C[C@@H](CO)C3)c2n1 [Abcavir]
[1]
  staining of test area (no staining = positive for TFV): staining in both the test area and control area
